From patent publication US20050181952A1, “Slow-release agrochemicals dispenser and method of use” (priority 2002, published 2005)

What was measured:
Striga [1] = experiment: Pot experiments, Kenya: watering regimes and efficacy of slow release formulations on Striga; type: in vivo; settings: pots
Description: Formulations were prepared as outlined in Example 3 and applied to the seeds, without adding free imazapyr (as in Example 2) and planted in pots. 63 pots (10,380 cm^3) were set up, each with 8 kg soil (classified as a vetro-eutic planosol according to the FAO/UNESCO (1974) system) so that we had 21 pots per replication. Each pot was inoculated with 3,000 Striga and mixed thoroughly at a depth of 15 cm. The pots were watered and left for one week to allow Striga seeds to “pre-condition” for germination. Two IR-corn seeds were planted in each plot, each treated 0, 0.25, 0.5 acid equivalent mg imazapyr per pot, as the free acid of the herbicide, or in 0, 0.15, 0.3, acid equivalent mg imazapyr per pot DE-52 or Dowex 1 formulations. Each formulation treatment at each rate had three replicates at each simulated rainfall regime. Natural rain measurements were made. Rainfall was supplemented at 19, 28, and 56 mm of water applied twice weekly, less amount of natural rainfall, for three months to simulate seasonal rainfalls of 500, 750 and 1500 mm, respectively. Measurements of Striga emergence were made at biweekly intervals. Late season emergence of Striga was measured at 12 weeks after planting. […] At the medium and highest watering level, there was no control of Striga by the lowest free herbicide rates, whereas the slow release herbicide performed far better (Table 3).

Striga [2] = experiment: Field experiment Short Rains 2002: slow release formulations without free herbicide, Striga control; type: in vivo
Description: A solid coat of polylvinylpyrollidone (PVP) (avg. MW 90 Kd) was used to bind the various formulations to the maize seed. 90 mg of PVP mixed with 2.9 ml water was combined with various amounts of the slow release formulations described in Example 1 or with 36 mg dry imazapyr (acid form) or sodium pyrithiobac powder mixed thoroughly together and then with 144 maize seeds (to give a imazapyr coating of 0.25 mg a.e. imazapyr seed^−1). This is the equivalent of 13.25 g a.e. ha^−1, respectively, when planted in the field at 53,300 seeds ha^−1. The treated seeds were then planted in the field within 2 days of coating. All field experiments were conducted at the National Sugar Research Center (NRSC) of the Kenya Agricultural Research Institute (KARI) near Kibos (0°04′S, 34°48′, elevation 1214 m) in western Kenya. The soil is classified as a vetro-eutic planosol according to the FAO/UNESCO (1974) system. The fields used had previously been cropped to maize that was heavily infested with Striga, which matured and seeded the area. The experiments were carried out during October-January […]. Seasonal precipitation during that season was 550 mm. […] Maize stand counts were determined six weeks after planting. […] The number of flowering Striga plants and Striga seed capsules at twelve and fourteen weeks; adjusted grain yield to 15% moisture; and total maize shoot dry weight were all measured. […]

## CC(C)C1(C)N=C(c2ncccc2C(=O)O)NC1=O (centres unmarked) [Imazapyr, imazapyr]
Striga [1]; High water (1500 mm total), imazapyr 0.25 mg/seed
  Late season Striga emergence 12 weeks (plants/m^2): 57 plants/m^2
Striga [1]; High water (1500 mm total), imazapyr 0.5 mg/seed
  Late season Striga emergence 12 weeks (plants/m^2): 11 plants/m^2
Striga [1]; Low water (500 mm total), imazapyr 0.25 mg/seed
  Late season Striga emergence 12 weeks (plants/m^2): 16 plants/m^2
Striga [1]; Low water (500 mm total), imazapyr 0.5 mg/seed
  Late season Striga emergence 12 weeks (plants/m^2): 3 plants/m^2
Striga [1]; Medium water (750 mm total), imazapyr 0.25 mg/seed
  Late season Striga emergence 12 weeks (plants/m^2): 33 plants/m^2
Striga [1]; Medium water (750 mm total), imazapyr 0.5 mg/seed
  Late season Striga emergence 12 weeks (plants/m^2): 7 plants/m^2
Striga [2]; imazapyr 0.25 mg/seed
  Striga emergence (m^−2) at 12 weeks: 2.1 m^−2
Striga [2]; imazapyr 0.5 mg/seed
  Striga emergence (m^−2) at 12 weeks: 0.7 m^−2
